Experimental data from patent EP4289427A1, “DIHYDRO[1,8]NAPHTHYRIDIN-7-ONE AND PYRIDO[3,2-B][1,4]OXAZIN-3-ONE FOR USE IN TREATING CANCER, AND METASTASES IN PARTICULAR” (Anagenesis Biotechnologies, priority 2022, dated 2023).

Tests used:
MDA-MB-231 cells = test: Cytotoxicity assay (CellTiter-Glo 2.0) on MDA-MB-231 cells; type: cell-based, Human; conditions: incubation 3 days; for IC50: Homo sapiens, 72 h
Protocol: (§1) Cytotoxicity assays consist in treating cells with compounds and assessing remaining viability after a defined incubation time, depending on the cell line. CellTiter-Glo® 2.0 reagent allows viability measurement by quantification of ATP present, which is an indicator of metabolically active cells.
(§2) The cancer cell lines were cultivated in their respective growth medium (see tables 6a and 6b). On day 0 of the cytotoxicity assay, the cells were harvested and seeded into a 384-well plate at a defined density in their respective growth medium (see tables 6a and 6b). Compounds to be tested were then added onto the cells and incubated for a defined duration (see tables 6a and 6b). Following incubation, CellTiter-Glo® 2.0 reagent (cat.no. G9241 from Promega) was added into the wells (vol/vol, according to the manufacturer's recommendations), plates were gently shaken and incubated for 10 minutes in the dark at room temperature. Bioluminescence was then measured with a multimode plate reader (Victor Nivo from Perkin Elmer), and cell viability and relative IC50 were determined. Table 6a: Cancer cell characteristics, culture and cytotoxic assay conditions

HUVECs = test: Tube formation assay (anti-angiogenic activity); type: cell-based, human; conditions: for IC50: Homo sapiens, HUVEC
Text: Angiogenesis is a phenomenon that includes different processes, such as endothelial cell proliferation, migration and differentiation that lead to the formation of new blood vessels. Tube formation assay is a standard in vitro test to assess angiogenesis: briefly, human Umbilical Vein Endothelial cells (hereafter "HUVECs") cultivated on a gelled basement matrix spontaneously proliferate, migrate and differentiate to form tube-like structures, that appear elongated and that connect to each other to form a network.
HUVECs were cultivated in Endothelial Cell Growth Medium (cat.no. C-22010 from Promocell) supplemented with 1% PenStrep (hereafter "HUVEC medium"). On day 0, HUVECs were harvested and transferred into a 384-well plate precoated with 10 µl/well of Cultrex UltiMatrix Reduced Growth factor basement membrane (cat.no. BME001-10 from BioTechne), according to the manufacturer's instructions, at a density of 5000 cells/well in HUVEC medium. Compounds to be tested were then added onto the cells and incubated for 16 to 18 hours at 37°C. After this incubation period, the cells were stained with calcein-AM (cat.no. 10462052 from Fisher Scientific) and pictures were acquired using a confocal fluorescent microscope (IXM from Molecular Devices). Tube formation was measured with MetaXpress® Software.

RD cells = test: Cytotoxicity assay (CellTiter-Glo 2.0) on RD cells; type: cell-based, Human; conditions: for IC50: Homo sapiens
Protocol: as §1, §2

4T1 cells = test: Cytotoxicity assay (CellTiter-Glo 2.0) on 4T1 cells; type: cell-based, Mouse; conditions: incubation 2 days; for IC50: Mus musculus, 48 h
Protocol: as §1, §2

EoL-1 cells = test: Cytotoxicity assay (CellTiter-Glo 2.0) on EoL-1 cells; type: cell-based, Human; conditions: incubation 1 day; for IC50: Homo sapiens, EOL1, 24 h
Protocol: as §1, §2

SMILES	IC50 (MDA-MB-231 cells) [nM]	Cytotoxicity (MDA-MB-231 cells)	IC50 (HUVECs; incubation 16 to 18 hours) [nM]	Angiogenesis inhibition (HUVECs; incubation 16 to 18 hours)	Cytotoxicity (RD cells; 2 day-treatment)	Cytotoxicity (RD cells; 4 day-treatment)	IC50 (RD cells; 48 h, 2 day-treatment) [nM]	IC50 (RD cells; 96 h, 4 day-treatment) [nM]	IC50 (4T1 cells) [nM]	Cytotoxicity (4T1 cells)	IC50 (EoL-1 cells) [nM]	Cytotoxicity (EoL-1 cells)	further results
CSc1cc(Oc2ccnc3c2CCC(=O)N3)ccc1NC(=O)Nc1cc(C(C)(C)C)nn1-c1ccccc1 [Compound 001, 1-(3-(tert-butyl)-1-phenyl-1H-pyrazol-5-yl)-3-(2-(methylthio)-4-((7-oxo-5,6,7,8-tetrahydro-1,8-naphthyridin-4-yl)oxy)phenyl)urea]	1000 to 5000	++ (50% ≤ cytotoxicity < 85%)	< 100	+++ (angiogenesis inhibition ≥ 80%)	+ (20 % ≤ cytotoxicity < 50%)	++ (50% ≤ cytotoxicity < 85%)	1000 to 5000	1000 to 5000	1000 to 5000	+++ (cytotoxicity ≥ 85%)	10 to 100	+++ (cytotoxicity ≥ 85%)	–
CSc1cc(Oc2ccnc3c2CCC(=O)N3)ccc1NC(=O)Nc1cc(C(C)(C)C)nn1-c1ccc(C)cc1 [Compound 002, 1-(3-(tert-butyl)-1-(p-tolyl)-1H-pyrazol-5-yl)-3-(2-(methylthio)-4-((7-oxo-5,6,7,8-tetrahydro-1,8-naphthyridin-4-yl)oxy)phenyl)urea]	1000 to 5000	++ (50% ≤ cytotoxicity < 85%)	< 100	+++ (angiogenesis inhibition ≥ 80%)	++ (50% ≤ cytotoxicity < 85%)	++ (50% ≤ cytotoxicity < 85%)	1000 to 5000	1000 to 5000	1000 to 5000	+++ (cytotoxicity ≥ 85%)	10 to 100	+++ (cytotoxicity ≥ 85%)	–
CSc1cc(Oc2ccnc3c2CCC(=O)N3)ccc1NC(=O)Nc1cc(C(C)(C)C)nn1-c1cccc(Cl)c1 [Compound 003, 1-(3-(tert-butyl)-1-(3-chlorophenyl)-1H-pyrazol-5-yl)-3-(2-(methylthio)-4-((7-oxo-5,6,7,8-tetrahydro-1,8-naphthyridin-4-yl)oxy)phenyl)urea]	1000 to 5000	++ (50% ≤ cytotoxicity < 85%)	–	–	+ (20 % ≤ cytotoxicity < 50%)	+ (20 % ≤ cytotoxicity < 50%)	1000 to 5000	5000 to 10000	< 1000	+++ (cytotoxicity ≥ 85%)	–	–	–
CSc1cc(Oc2ccnc3c2CCC(=O)N3)ccc1NC(=O)Nc1ncc(C(C)(C)C)s1 [Compound 004, 1-(5-(tert-butyl)thiazol-2-yl)-3-(2-(methylthio)-4-((7-oxo-5,6,7,8-tetrahydro-1,8-naphthyridin-4-yl)oxy)phenyl)urea]	< 1000	++ (50% ≤ cytotoxicity < 85%)	100 to 500	+++ (angiogenesis inhibition ≥ 80%)	+ (20 % ≤ cytotoxicity < 50%)	++ (50% ≤ cytotoxicity < 85%)	1000 to 5000	1000 to 5000	1000 to 5000	+++ (cytotoxicity ≥ 85%)	1 to 10	+++ (cytotoxicity ≥ 85%)	–
CSc1cc(Oc2ccnc3c2CCC(=O)N3)ccc1NC(=O)Nc1cncc(C(F)(F)F)c1 [Compound 005, 1-(2-(methylthio)-4-((7-oxo-5,6,7,8-tetrahydro-1,8-naphthyridin-4-yl)oxy)phenyl)-3-(5-(trifluoromethyl)pyridin-3-yl)urea]	1000 to 5000	++ (50% ≤ cytotoxicity < 85%)	100 to 500	++ (80% > angiogenesis inhibition ≥ 50%)	+ (20 % ≤ cytotoxicity < 50%)	++ (50% ≤ cytotoxicity < 85%)	1000 to 5000	1000 to 5000	5000 to 10000	++ (50% ≤ cytotoxicity < 85%)	< 1	+++ (cytotoxicity ≥ 85%)	–
CC(C)(C)c1cnc(NC(=O)Nc2ccc(Oc3ccnc4c3CCC(=O)N4)c3ccccc23)s1 [Compound 007, 1-(5-(tert-butyl)thiazol-2-yl)-3-(4-((7-oxo-5,6,7,8-tetrahydro-1,8-naphthyridin-4-yl)oxy)naphthalen-1-yl)urea]	1000 to 5000	++ (50% ≤ cytotoxicity < 85%)	< 100	+++ (angiogenesis inhibition ≥ 80%)	+ (20 % ≤ cytotoxicity < 50%)	++ (50% ≤ cytotoxicity < 85%)	5000 to 10000	1000 to 5000	1000 to 5000	+++ (cytotoxicity ≥ 85%)	10 to 100	+++ (cytotoxicity ≥ 85%)	–
CSc1cc(Oc2ccnc3c2OCC(=O)N3)ccc1NC(=O)Nc1ncc(C(C)(C)C)o1 [Compound 025]	–	–	–	–	–	–	–	–	–	–	< 1	+++ (cytotoxicity ≥ 85%)	–
CC(C)(C)c1cc(NC(=O)Nc2ccc(Oc3ccnc4c3CCC(=O)N4)cc2C(F)(F)F)n(-c2ccc(F)cc2F)n1 [Compound 029, 1-[5-tert-butyl-2-(2,4-difluorophenyl)pyrazol-3-yl]-3-[4-[(7-oxo-6,8-dihydro-5H-1,8-naphthyridin-4-yl)oxy]-2-(trifluoromethyl)phenyl]urea]	5000 to 10000	+ (20 % ≤ cytotoxicity < 50%)	100 to 500	++ (80% > angiogenesis inhibition ≥ 50%)	–	–	–	–	1000 to 5000	++ (50% ≤ cytotoxicity < 85%)	10 to 100	+++ (cytotoxicity ≥ 85%)	–
CC(C)(C)c1coc(NC(=O)Nc2ccc(Oc3ccnc4c3CCC(=O)N4)cc2C(F)(F)F)n1 [Compound 036]	5000 to 10000	+ (20 % ≤ cytotoxicity < 50%)	–	–	+ (20 % ≤ cytotoxicity < 50%)	- (cytotoxicity < 20%)	1000 to 5000	1000 to 5000	≥ 10000	- (cytotoxicity < 20%)	≥ 100	+ (20 % ≤ cytotoxicity < 50%)	–
CC(C)(C)c1cc(NC(=O)Nc2ccc(Oc3ccnc4c3OCC(=O)N4)cc2C(F)(F)F)n(-c2ccc(CCN3CCOCC3)cc2)n1 [Compound 053, 1-[5-tert-butyl-2-[4-(2-morpholinoethyl)phenyl]pyrazol-3-yl]-3-[4-[(3-oxo-4H-pyrido[3,2-b][1,4]oxazin-8-yl)oxy]-2-(trifluoromethyl)phenyl]urea]	1000 to 5000	++ (50% ≤ cytotoxicity < 85%)	< 100	+++ (angiogenesis inhibition ≥ 80%)	–	–	–	–	< 1000	+++ (cytotoxicity ≥ 85%)	10 to 100	+++ (cytotoxicity ≥ 85%)	–
COc1cc2nccc(Oc3ccc(NC(=O)NC4CC4)c(Cl)c3)c2cc1C(N)=O [Lenvatinib, reference compound]	–	–	–	–	–	–	–	–	–	–	–	–	IC50 (MDA-MB-231 cells; commercial kinase inhibitors): ≥ 10000 nM; Cytotoxicity (MDA-MB-231 cells; commercial kinase inhibitors): - (cytotoxicity < 20 %); IC50 (HUVECs; commercial kinase inhibitors): < 100 nM; Angiogenesis inhibition (HUVECs; commercial kinase inhibitors): ++ (80% > angiogenesis inhibition ≥ 50%); IC50 (4T1 cells; commercial kinase inhibitors): 1000 to 5000 nM; Cytotoxicity (4T1 cells; commercial kinase inhibitors): + (20 % ≤ cytotoxicity < 50 %); IC50 (EoL-1 cells; commercial kinase inhibitors): 1 to 10 nM; Cytotoxicity (EoL-1 cells; commercial kinase inhibitors): +++ (cytotoxicity ≥ 85%)
Cc1ccc(F)c(NC(=O)Nc2ccc(-c3cccc4[nH]nc(N)c34)cc2)c1 [Linifanib, reference compound]	–	–	–	–	–	–	–	–	–	–	–	–	IC50 (HUVECs; commercial kinase inhibitors): < 100 nM; Angiogenesis inhibition (HUVECs; commercial kinase inhibitors): + (50% > angiogenesis inhibition ≥ 20%)
COc1cc2nccc(Oc3ccc(NC(=O)Nc4cc(C)on4)c(Cl)c3)c2cc1OC [Tivozanib, reference compound]	–	–	–	–	–	–	–	–	–	–	–	–	IC50 (MDA-MB-231 cells; commercial kinase inhibitors): 5000 to 10000 nM; Cytotoxicity (MDA-MB-231 cells; commercial kinase inhibitors): ++ (50 % ≤ cytotoxicity < 85 %); IC50 (HUVECs; commercial kinase inhibitors): 100 to 500 nM; Angiogenesis inhibition (HUVECs; commercial kinase inhibitors): + (50% > angiogenesis inhibition ≥ 20%); Cytotoxicity (RD cells; 2 day-treatment, commercial kinase inhibitors): - (cytotoxicity < 20 %); Cytotoxicity (RD cells; 4 day-treatment, commercial kinase inhibitors): - (cytotoxicity < 20 %); IC50 (RD cells; 48 h, 2 day-treatment, commercial kinase inhibitors): ≥ 10000 nM; IC50 (RD cells; 96 h, 4 day-treatment, commercial kinase inhibitors): ≥ 10000 nM; IC50 (4T1 cells; commercial kinase inhibitors): 5000 to 10000 nM; Cytotoxicity (4T1 cells; commercial kinase inhibitors): +++ (cytotoxicity ≥ 85 %)
